Experimental findings from US8933039B2 (NPS Pharmaceuticals, Inc., priority 1995, dated 2015) are described below.

Non-standard residues stand in square brackets, D forms with d. No end group written: not given here. Phg = N[C@H](C(=O)O)c1ccccc1; Nva = CCC[C@H](N)C(=O)O; Aib = CC(C)(N)C(=O)O

The subject of data set [1] is dipeptidyl peptidase IV (DPP-IV). The data set is described as follows: human placental DPP-IV (Calbiochem), 0.125 mU, added to test peptide in PBS at pH 7.4. As to conditions: 37° C., up to 24 hours.
In the next data set the target is DPP-IV (Homo sapiens, UniProt P27487). As to the kind of experiment: Assay for resistance to dipeptidyl peptidase IV (RP-HPLC of cleavage product). As to conditions: human, isolated human placental DPP-IV (dipeptidyl peptidase IV), pH 7.4, % Cleaved by DPP-IV, as Example 3: human placental DPP-IV, 37° C., PBS pH 7.4.
The next data set has as its system CD1 mice. The data set is described as follows: Intestinotrophic activity assessment: small bowel weight in mice. Type of data set: in vivo. As to conditions: for % Activity (small bowel inducing activity relative to native rat GLP-2(1-33) = 100%): mice, as Example 4; for % Increase in small bowel weight: CD1 mice, 2.5 μg peptide s.c. b.i.d. in PBS, sacrificed 10 or 14 days, relative to vehicle only. The procedure, abridged: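 Activity expressed against native rat GLP-2(1-33) (100%) and as percent bowel-weight change over vehicle controls, from excised pylorus-to-cecum small bowel. Dosing: 2.5 μg peptide subcutaneously twice daily to 6-week female CD1 mice (n=3-4), killed at day 10 or 14 after fasting ≥20 h.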

DPP-IV, sequence (P27487 whole entry): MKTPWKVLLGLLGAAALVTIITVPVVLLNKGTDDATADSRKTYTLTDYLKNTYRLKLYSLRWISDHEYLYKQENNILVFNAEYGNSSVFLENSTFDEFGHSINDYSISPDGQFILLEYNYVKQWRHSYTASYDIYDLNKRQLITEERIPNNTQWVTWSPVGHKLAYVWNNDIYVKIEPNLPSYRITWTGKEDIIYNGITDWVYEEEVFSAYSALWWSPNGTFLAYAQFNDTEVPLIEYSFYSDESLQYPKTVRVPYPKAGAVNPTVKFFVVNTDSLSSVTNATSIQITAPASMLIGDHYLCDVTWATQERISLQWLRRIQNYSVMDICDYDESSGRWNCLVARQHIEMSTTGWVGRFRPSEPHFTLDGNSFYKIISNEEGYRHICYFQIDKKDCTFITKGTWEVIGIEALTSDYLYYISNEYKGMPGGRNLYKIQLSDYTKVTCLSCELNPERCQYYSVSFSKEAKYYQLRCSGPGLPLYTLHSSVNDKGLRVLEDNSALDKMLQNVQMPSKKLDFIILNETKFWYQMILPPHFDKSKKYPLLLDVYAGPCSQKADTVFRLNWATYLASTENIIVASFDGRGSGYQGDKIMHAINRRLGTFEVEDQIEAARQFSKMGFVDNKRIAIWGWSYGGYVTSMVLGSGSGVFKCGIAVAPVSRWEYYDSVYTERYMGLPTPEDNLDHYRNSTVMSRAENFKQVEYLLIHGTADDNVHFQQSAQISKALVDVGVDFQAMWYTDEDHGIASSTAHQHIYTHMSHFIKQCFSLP

In the case of “Ac-ratGLP-2(1-33) (Ac-HADGSFSDEMNTILDNLATRDFINWLIQTKITD-OH)”, the not cleaved in data set [1] amounted to 0% cleaved by DPP-IV.

On DPP-IV, “H-HTDGSFSDEMNTILDNLAARDFINWLIQTKITD-OH [[Thr2]hGLP-2(1-33)]” had a metabolised at 24 h, 0.19 mg/ml of 0%. Besides, the “% Activity (small bowel inducing activity relative to native rat GLP-2(1-33) = 100%)” value in the data set on CD1 mice is 117%.

As for “H-HVDGSFSDEMNTILDNLAARDFINWLIQTKITD-OH [[Val2]hGLP-2(1-33)]”, on DPP-IV, the metabolised at 24 h, 0.19 mg/ml was found to be 13%. Besides, the “% Activity (small bowel inducing activity relative to native rat GLP-2(1-33) = 100%)” value with CD1 mice was 180%.

As to “H-HYDGSFSDEMNTILDNLAARDFINWLIQTKITD-OH [[Tyr2]hGLP-2(1-33)]”, the metabolised at 24 h, 0.19 mg/ml at DPP-IV worked out at 0%. The “% Activity (small bowel inducing activity relative to native rat GLP-2(1-33) = 100%)” value with CD1 mice came to 57%.

At DPP-IV, “H-PADGSFSDEMNTILDNLAARDFINWLIQTKITD-OH [[Pro1]hGLP-2(1-33)]” had a metabolised at 24 h, 0.19 mg/ml of 0%. In addition, the “% Activity (small bowel inducing activity relative to native rat GLP-2(1-33) = 100%)” value with CD1 mice worked out at 12%.

At DPP-IV, “H-RHADGSFSDEMNTILDNLATRDFINWLIQTKITD-OH [[Arg-l]ratGLP-2(-1-33)]” yielded a metabolised at 24 h, 0.19 mg/ml of 0%. In addition, the “% Activity (small bowel inducing activity relative to native rat GLP-2(1-33) = 100%)” value with CD1 mice is given as 11%.

Consider “H-YADGSFSDEMNTILDNLATRDFINWLIQTKITD-OH [[Tyr1]ratGLP-2(1-33)]”, for which the metabolised at 24 h, 0.19 mg/ml on DPP-IV was found to be 100%. In addition, in the data set with CD1 mice, the “% Increase in small bowel weight” value came out at 37% and the “% Activity (small bowel inducing activity relative to native rat GLP-2(1-33) = 100%)” value was 81%.

In turn, “H-YGDGSFSDEMNTILDNLAARDFINWLIQTKITD-OH [[Tyr1, Gly2]hGLP-2(1-33)]” showed a metabolised at 24 h, 0.19 mg/ml at DPP-IV of 0%. The “% Activity (small bowel inducing activity relative to native rat GLP-2(1-33) = 100%)” value with CD1 mice came out at 241%.

“HVDGSFSDEMNTILDNLATRDFINWLIQTKITD [[Val2]GLP-2(1-33)]” yielded a metabolised at 24 h, 0.19 mg/ml on DPP-IV of 0%. In the data set with CD1 mice, the “% Increase in small bowel weight” value was found to be 65% and the “% Activity (small bowel inducing activity relative to native rat GLP-2(1-33) = 100%)” value is 145%.

On to “[Aib2]hGLP-2(1-33) (H-H[Aib]DGSFSDEMNTILDNLAARDFINWLIQTKITD-OH; SMILES CC[C@H](C)[C@H](NC(=O)[C@H](Cc1ccccc1)NC(=O)[C@H](CC(=O)O)NC(=O)[C@H](CCCNC(=N)N)NC(=O)[C@H](C)NC(=O)[C@H](C)NC(=O)[C@H](CC(C)C)NC(=O)[C@H](CC(N)=O)NC(=O)[C@H](CC(=O)O)NC(=O)[C@H](CC(C)C)NC(=O)[C@@H](NC(=O)[C@@H](NC(=O)[C@H](CC(N)=O)NC(=O)[C@H](CCSC)NC(=O)[C@H](CCC(=O)O)NC(=O)[C@H](CC(=O)O)NC(=O)[C@H](CO)NC(=O)[C@H](Cc1ccccc1)NC(=O)[C@H](CO)NC(=O)CNC(=O)[C@H](CC(=O)O)NC(=O)C(C)(C)NC(=O)[C@@H](N)Cc1c[nH]cn1)[C@@H](C)O)[C@@H](C)CC)C(=O)N[C@@H](CC(N)=O)C(=O)N[C@@H](Cc1c[nH]c2ccccc12)C(=O)N[C@@H](CC(C)C)C(=O)N[C@H](C(=O)N[C@@H](CCC(N)=O)C(=O)N[C@H](C(=O)N[C@@H](CCCCN)C(=O)N[C@H](C(=O)N[C@H](C(=O)N[C@@H](CC(=O)O)C(=O)O)[C@@H](C)O)[C@@H](C)CC)[C@@H](C)O)[C@@H](C)CC)”, for which the not cleaved in data set [1] is on record as 0% cleaved by DPP-IV.

Consider “[Ala1,Gly2]hGLP-2(1-33) (H-AGDGSFSDEMNTILDNLAARDFINWLIQTKITD-OH)”, for which the not cleaved in data set [1] came to 0% cleaved by DPP-IV.

For the substance [Arg-2,Arg-1]ratGLP-2(2-33), the not cleaved in data set [1] is 0% cleaved by DPP-IV.

In data set [1], “[Arg-l]ratGLP-2(-1-33) (H-RHADGSFSDEMNTILDNLATRDFINWLIQTKITD-OH)” gave a not cleaved of 0% cleaved by DPP-IV.

With “[Asn2]hGLP-2(1-33) (H-HNDGSFSDEMNTILDNLAARDFINWLIQTKITD-OH)”, the not cleaved in data set [1] is given as 0% cleaved by DPP-IV.

In data set [1], “[Asp1]hGLP-2(1-33) (H-DADGSFSDEMNTILDNLAARDFINWLIQTKITD-OH)” gave a not cleaved of 0% cleaved by DPP-IV.

Take “[Asp2]hGLP-2(1-33) (H-HDDGSFSDEMNTILDNLAARDFINWLIQTKITD-OH)”: the not cleaved in data set [1] is 0% cleaved by DPP-IV.

In data set [1], [D-Ala2]hGLP-2(1-33) gave a not cleaved of 0% cleaved by DPP-IV.

“[Gln2]hGLP-2(1-33) (H-HQDGSFSDEMNTILDNLAARDFINWLIQTKITD-OH)”: in data set [1], the not cleaved is 0% cleaved by DPP-IV.

“[Glu2]hGLP-2(1-33) (H-HEDGSFSDEMNTILDNLAARDFINWLIQTKITD-OH)”: in data set [1], the not cleaved came to 0% cleaved by DPP-IV.

In data set [1], [Gly2, Arg34]hGLP-2(1-34) showed a not cleaved of 0% cleaved by DPP-IV.

The substance [Gly2, Tyr34]hGLP-2(1-34) displayed a not cleaved in data set [1] of 0% cleaved by DPP-IV.

“[Gly2,Ala3]hGLP-2(1-33) (H-HGAGSFSDEMNTILDNLAARDFINWLIQTKITD-OH)” registered a not cleaved in data set [1] of 0% cleaved by DPP-IV.

“[Gly2,Ala4]hGLP-2(1-33) (H-HGDASFSDEMNTILDNLAARDFINWLIQTKITD-OH)” gave a not cleaved in data set [1] of 0% cleaved by DPP-IV.

Take “[Gly2,Ala5]hGLP-2(1-33) (H-HGDGAFSDEMNTILDNLAARDFINWLIQTKITD-OH)”: the not cleaved in data set [1] worked out at 0% cleaved by DPP-IV.

Consider “[Gly2,Ala24]hGLP-2(1-33) (H-HGDGSFSDEMNTILDNLAARDFIAWLIQTKITD-OH)”, for which the not cleaved in data set [1] is 0% cleaved by DPP-IV.

In data set [1], [Gly2]hGLP-2(1-33) gave a not cleaved of 0% cleaved by DPP-IV.

As to “[His2]hGLP-2(1-33) (H-HHDGSFSDEMNTILDNLAARDFINWLIQTKITD-OH)”, in data set [1], the not cleaved came to 0% cleaved by DPP-IV.

For the substance “[Ile2]hGLP-2(1-33) (H-HIDGSFSDEMNTILDNLAARDFINWLIQTKITD-OH)”, the not cleaved in data set [1] amounted to 0% cleaved by DPP-IV.

For “[Lys2]hGLP-2(1-33) (H-HKDGSFSDEMNTILDNLAARDFINWLIQTKITD-OH)”, the not cleaved in data set [1] is given as 0% cleaved by DPP-IV.

For the substance “[Met2]hGLP-2(1-33) (H-HMDGSFSDEMNTILDNLAARDFINWLIQTKITD-OH)”, in data set [1], the not cleaved came to 0% cleaved by DPP-IV.

Turning to “[Nval2]hGLP-2(1-33) (H-H[Nva]DGSFSDEMNTILDNLAARDFINWLIQTKITD-OH; SMILES CCC[C@H](NC(=O)[C@@H](N)Cc1c[nH]cn1)C(=O)N[C@@H](CC(=O)O)C(=O)NCC(=O)N[C@@H](CO)C(=O)N[C@@H](Cc1ccccc1)C(=O)N[C@@H](CO)C(=O)N[C@@H](CC(=O)O)C(=O)N[C@@H](CCC(=O)O)C(=O)N[C@@H](CCSC)C(=O)N[C@@H](CC(N)=O)C(=O)N[C@H](C(=O)N[C@H](C(=O)N[C@@H](CC(C)C)C(=O)N[C@@H](CC(=O)O)C(=O)N[C@@H](CC(N)=O)C(=O)N[C@@H](CC(C)C)C(=O)N[C@@H](C)C(=O)N[C@@H](C)C(=O)N[C@@H](CCCNC(=N)N)C(=O)N[C@@H](CC(=O)O)C(=O)N[C@@H](Cc1ccccc1)C(=O)N[C@H](C(=O)N[C@@H](CC(N)=O)C(=O)N[C@@H](Cc1c[nH]c2ccccc12)C(=O)N[C@@H](CC(C)C)C(=O)N[C@H](C(=O)N[C@@H](CCC(N)=O)C(=O)N[C@H](C(=O)N[C@@H](CCCCN)C(=O)N[C@H](C(=O)N[C@H](C(=O)N[C@@H](CC(=O)O)C(=O)O)[C@@H](C)O)[C@@H](C)CC)[C@@H](C)O)[C@@H](C)CC)[C@@H](C)CC)[C@@H](C)CC)[C@@H](C)O)”, in data set [1], the not cleaved stood at 0% cleaved by DPP-IV.

As to “[PhGly2]hGLP-2(1-33) (H-H[Phg]DGSFSDEMNTILDNLAARDFINWLIQTKITD-OH; SMILES CC[C@H](C)[C@H](NC(=O)[C@H](Cc1ccccc1)NC(=O)[C@H](CC(=O)O)NC(=O)[C@H](CCCNC(=N)N)NC(=O)[C@H](C)NC(=O)[C@H](C)NC(=O)[C@H](CC(C)C)NC(=O)[C@H](CC(N)=O)NC(=O)[C@H](CC(=O)O)NC(=O)[C@H](CC(C)C)NC(=O)[C@@H](NC(=O)[C@@H](NC(=O)[C@H](CC(N)=O)NC(=O)[C@H](CCSC)NC(=O)[C@H](CCC(=O)O)NC(=O)[C@H](CC(=O)O)NC(=O)[C@H](CO)NC(=O)[C@H](Cc1ccccc1)NC(=O)[C@H](CO)NC(=O)CNC(=O)[C@H](CC(=O)O)NC(=O)[C@@H](NC(=O)[C@@H](N)Cc1c[nH]cn1)c1ccccc1)[C@@H](C)O)[C@@H](C)CC)C(=O)N[C@@H](CC(N)=O)C(=O)N[C@@H](Cc1c[nH]c2ccccc12)C(=O)N[C@@H](CC(C)C)C(=O)N[C@H](C(=O)N[C@@H](CCC(N)=O)C(=O)N[C@H](C(=O)N[C@@H](CCCCN)C(=O)N[C@H](C(=O)N[C@H](C(=O)N[C@@H](CC(=O)O)C(=O)O)[C@@H](C)O)[C@@H](C)CC)[C@@H](C)O)[C@@H](C)CC)”, the not cleaved in data set [1] is 0% cleaved by DPP-IV.

With “[Phe2]hGLP-2(1-33) (H-HFDGSFSDEMNTILDNLAARDFINWLIQTKITD-OH)”, the not cleaved in data set [1] was 0% cleaved by DPP-IV.

“[Pro1]hGLP-2(1-33) (H-PADGSFSDEMNTILDNLAARDFINWLIQTKITD-OH)” yielded a not cleaved in data set [1] of 0% cleaved by DPP-IV.

In data set [1], “[Pro3]hGLP-2(1-33) (H-HAPGSFSDEMNTILDNLAARDFINWLIQTKITD-OH)” had a not cleaved of 0% cleaved by DPP-IV.

Take “[Ser2]hGLP-2(1-33) (H-HSDGSFSDEMNTILDNLAARDFINWLIQTKITD-OH)”: the not cleaved in data set [1] was 0% cleaved by DPP-IV.

The substance “[Thr2]hGLP-2(1-33) (H-HTDGSFSDEMNTILDNLAARDFINWLIQTKITD-OH)” showed a not cleaved in data set [1] of 0% cleaved by DPP-IV.

Turning to “[Thr^19]hGLP-2(1-33) (H-HADGSFSDEMNTILDNLATRDFINWLIQTKITD-OH)”, in data set [1], the cleaved bond entry was “Ala2-Asp3, 24 hours”.

In data set [1], “[Tyr1, Gly2]hGLP-2(1-33) (H-YGDGSFSDEMNTILDNLAARDFINWLIQTKITD-OH)” gave a not cleaved of 0% cleaved by DPP-IV.

In the case of “[Tyr2]hGLP-2(1-33) (H-HYDGSFSDEMNTILDNLAARDFINWLIQTKITD-OH)”, the not cleaved in data set [1] was determined as 0% cleaved by DPP-IV.

[Val2]GLP-2(1-33) yielded a not cleaved in data set [1] of 0% cleaved by DPP-IV.
